Results: PubChem BioAssay (NCI)
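In this assay, cells in 96-well plates receive the compound at five concentrations for 48 hours. Endpoints are linearly interpolated between the surrounding concentrations. At the GI50, growth is halved. At the TGI there is no net growth.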

Legend:
Assay in all cases: DTP human tumour cell line panel, 48 h
OVCAR-3 ovarian = test system: OVCAR-3 ovarian
SK-MEL-28 melanoma = test system: SK-MEL-28 melanoma
SW-620 colon = test system: SW-620 colon
UACC-62 melanoma = test system: UACC-62 melanoma
SF-295 CNS = test system: SF-295 CNS
SR leukemia = test system: SR leukemia
RPMI-8226 leukemia = test system: RPMI-8226 leukemia
KM12 colon = test system: KM12 colon
HS 578T breast = test system: HS 578T breast
T-47D breast = test system: T-47D breast

Structure (SMILES)	TGI (OVCAR-3 ovarian)	TGI (SK-MEL-28 melanoma)	TGI (SW-620 colon)	TGI (UACC-62 melanoma)	TGI (SF-295 CNS)	TGI (SR leukemia)	TGI (RPMI-8226 leukemia)	TGI (KM12 colon)	GI50 (OVCAR-3 ovarian)	GI50 (SK-MEL-28 melanoma)	GI50 (SW-620 colon)	GI50 (UACC-62 melanoma)	GI50 (SF-295 CNS)	GI50 (HS 578T breast)	TGI (HS 578T breast)	GI50 (RPMI-8226 leukemia)	GI50 (KM12 colon)	GI50 (T-47D breast)	TGI (T-47D breast)	GI50 (SR leukemia)
CN(C)CCC[N+]1=Nc2cccc3cccc(c23)N1	> 100 µM	> 100 µM	44.9 µM	> 100 µM	> 100 µM	35.5 µM	47.3 µM	> 100 µM												
N#CC(/C(CCCC(=O)Nc1cccc([N+](=O)[O-])c1)=N\NC(=O)c1c(O)ccc2ccccc12)c1nc2ccccc2s1 (configuration not stated)	> 100 µM	> 100 µM	> 100 µM		> 100 µM	> 100 µM		> 100 µM												
CCOC(=O)C1C(=O)CC(=O)C2CCCCC21 (configuration not stated)	> 100 µM	> 100 µM	> 100 µM	> 100 µM	> 100 µM		> 100 µM	> 100 µM												
N#Cc1c(N)nc(N2CCOCC2)c(C#N)c1-c1c(Cl)cccc1Cl	6.37 µM	56 µM	> 100 µM	19.7 µM	43.2 µM		47.5 µM	77.8 µM	2.4 µM	7.38 µM	5.16 µM	3.87 µM	4.4 µM	5.07 µM	63.9 µM	4.41 µM	6.42 µM	3.43 µM	10.1 µM	
CCc1c(C)c2cc(-n3c(-c4ccc(OC)cc4)csc3=N)c(O)c(C)c2oc1=O	3.08 µM	4.42 µM	3.28 µM	2.94 µM	10.3 µM			8.37 µM	1.19 µM	1.55 µM	1.32 µM	1 µM	1.52 µM	2.1 µM	> 100 µM		1.32 µM	0.551 µM	4.24 µM	
CN(C)N=Nc1ccc(S(N)(=O)=O)cc1	> 100 µM	> 100 µM	> 100 µM	> 100 µM	> 100 µM	> 100 µM	> 100 µM	> 100 µM												
CC12CCc3ccccc3C1=NNC(=O)C2 (configuration not stated)	> 100 µM	> 100 µM	> 100 µM		> 100 µM		> 100 µM	> 100 µM												
S=C(SSC(=S)N1CCCCC1)N1CCCCC1	24.2 µM	69.3 µM	26.9 µM	49.1 µM	> 100 µM		40.2 µM	29 µM	11.3 µM	18.9 µM	13.4 µM	16 µM	40.1 µM	21 µM	> 100 µM	12.9 µM	13.9 µM			
N#CC1=C(N)OC2=C(CCOc3c2ccc2ccccc32)C1c1ccc(Br)cc1 (configuration not stated)	39.4 µM	> 100 µM	> 100 µM	> 100 µM	83.8 µM	57.8 µM	40.8 µM	34.3 µM	15.1 µM	61.5 µM	> 100 µM	48.1 µM	18.1 µM			13.5 µM	14.6 µM	> 100 µM	> 100 µM	17 µM
COc1cnccc1Nc1nc(-c2nn(Cc3c(F)cc(OCCO)cc3F)c3ccccc23)ncc1OC	8.51 µM	9.66 µM	7.4 µM		24.9 µM		55.2 µM	63.6 µM	3.05 µM	2.47 µM	1.99 µM		7.26 µM	9.08 µM	26.3 µM	2.19 µM	3.88 µM	16.5 µM	72.7 µM	
CC(=O)CC(=O)Nc1ccccc1C(F)(F)F		> 100 µM	> 100 µM	> 100 µM			> 100 µM													
CC(=O)Nc1ccc(/C=c2\sc3nnc(-c4cccnc4)n3c2=O)cc1	34 µM	33 µM	34.2 µM	27.7 µM	> 100 µM	46.7 µM		31 µM												
CC1=C[C@@H]2c3c(c(O)c(O)c4oc5cc(O)cc(O)c5c(=O)c34)[C@@H](c3cc(O)c(O)c4oc5cc(O)cc(O)c5c(=O)c34)[C@@H]2C(C)(C)C1	13.4 µM	18.7 µM	14.2 µM	5.72 µM	11.3 µM		10.3 µM	12.2 µM	3.33 µM	5.64 µM	3.48 µM	1.88 µM	2.87 µM	3.42 µM	21 µM	1.96 µM	3.1 µM	4.6 µM	19.2 µM	
CN1CCN(c2nc(N)c(Br)c(Cl)n2)CC1	> 100 µM	> 100 µM	> 100 µM	> 100 µM	> 100 µM		> 100 µM	> 100 µM												
O=C(CCc1ccccc1)CC1OC(=O)C(Cl)=C1Cl (configuration not stated)	38.1 µM	32.9 µM	25.1 µM	31.7 µM	87.4 µM	> 100 µM	> 100 µM	33.8 µM												
Cc1[nH]c2cc([N+](=O)[O-])ccc2c1[N+](=O)[O-]	> 100 µM	77.8 µM	97.9 µM		48.8 µM		58.4 µM	67.6 µM												
O=C(NCCNCCO)c1ccc(Nc2nc3ccccc3c3occc23)cc1	22.8 µM	58.4 µM	43.1 µM	30.8 µM	29.8 µM		37.5 µM	23.8 µM	6.22 µM	23.7 µM	21.1 µM	16.6 µM	14.1 µM	16.1 µM	36.7 µM	18.3 µM	8.99 µM	25.8 µM	90.2 µM	
CCN(CC)c1ccc(C2N3CCCCC3[C@@H]3c4[nH]c5ccccc5c4CCN23)cc1 (some centres not stated)	71.4 µM	58 µM	> 100 µM	36.6 µM	> 100 µM		> 100 µM													
CC(=O)[CH-]C(=O)c1ccccc1.CC(=O)[CH-]C(=O)c1ccccc1.CC(=O)[CH-]C(=O)c1ccccc1.[Ga+3]	48.9 µM	30.9 µM	55.8 µM	30 µM	47.5 µM		37.1 µM	31.1 µM	20.4 µM	16.5 µM	23 µM	16.4 µM	23.3 µM			12.1 µM	16.8 µM			
